Laboratory results from patent publication US20210254272A1, “TEXTILES HAVING ANTIMICROBIAL PROPERTIES” (Livinguard AG, priority 2015, published 2021).

Assay: Leaching test: 100 g fabric soaked in 10 liters stagnant distilled water, 3 days (72 hours)
Assay type: physicochemical
Conditions: for Leaching of active ingredients / Leaching Test-Leaching of active ingredients: pad process; for Leaching of active ingredients: cured 180° C. 2 min; for Leaching Test-Leaching of active ingredients: 2 min
Method: (§1) The test procedure for leaching was as follows: 100 g (grams) of fabric as well as control fabrics were soaked in 10 liters of stagnant distilled water in a closed wide mouth jar. After 3 days (72 hours), the water samples were tested for leached substances as per standard analytical methods.
as §1, with “methods. A weight of 100 g fabric was chosen because in the preferred embodiment of the water filter as described further below, each filter comprises a strip of fabric with 210 g/m^2, 3 meters long and 0.16 meters wide, which corresponds to 100 g of fabric.” for “methods.”

Silver
Leaching of active ingredients (in ppm) (exhaust 80° C., 60 min, dosage 1% o.w.f (test up to 5% o.w.f)): 3.5 ppm | Leaching of active ingredients (in ppm) (exhaust 80° C., 60 min, dosage 2% o.w.f): 19 ppm | Leaching of active ingredients (in ppm) (exhaust 80° C., 60 min, dosage 3% o.w.f): 36 ppm | Leaching of active ingredients (in ppm) (exhaust 80° C., 60 min, dosage 4% o.w.f): 41 ppm | Leaching of active ingredients (in ppm) (exhaust 80° C., 60 min, dosage 5% o.w.f): 69 ppm | Leaching of active ingredients (in ppm) (exhaust 80 ° C., solution dosage 1% o.w.f, process time 10 min): 50 ppm | Leaching of active ingredients (in ppm) (exhaust 80 ° C., solution dosage 1% o.w.f, process time 20 min): 37 ppm | Leaching of active ingredients (in ppm) (exhaust 80 ° C., solution dosage 1% o.w.f, process time 30 min): 28 ppm | Leaching of active ingredients (in ppm) (exhaust 80 ° C., solution dosage 1% o.w.f, process time 40 min): 22 ppm | Leaching of active ingredients (in ppm) (exhaust 80 ° C., solution dosage 1% o.w.f, process time 50 min): 19 ppm | Leaching of active ingredients (in ppm) (exhaust 80 ° C., solution dosage 1% o.w.f, process time 55 min): 8 ppm | Leaching of active ingredients (in ppm) (exhaust 80 ° C., solution dosage 1% o.w.f, process time 60 min): 4 ppm | Leaching of active ingredients (in ppm) (exhaust 80 ° C., solution dosage 1% o.w.f, process time 70 min): 4 ppm | Leaching of active ingredients (in ppm) (exhaust 80 ° C., solution dosage 1% o.w.f, process time 80 min): 3 ppm | Leaching of active ingredients (in ppm) (exhaust 80 ° C., solution dosage 1% o.w.f, process time 90 min): 8 ppm | limit on the quantity of the agent that can be adhered to the textile in a non-leaching or substantially non-leaching manner (from Experimental examples I.1 and I.4): about 0.01 % o.w.f. | Leaching of active ingredients (mixture 1 gm/lit each): 12 ppm | Leaching of active ingredients (mixture 1 gm/lit each, after Washing): 0.4 ppm | Leaching of active ingredients (mixture 5 gm/lit each): 28 ppm | Leaching of active ingredients (mixture 5 gm/lit each, after Washing): 0.6 ppm | Leaching of active ingredients (mixture 10 gm/lit each): 38 ppm | Leaching of active ingredients (mixture 10 gm/lit each, after Washing): 1.0 ppm | Leaching Test-Leaching of active ingredients (single agent 5 gm/lit, curing 120° C.): 9 ppm | Leaching Test-Leaching of active ingredients (single agent 5 gm/lit, curing 140° C.): 5 ppm | Leaching Test-Leaching of active ingredients (single agent 5 gm/lit, curing 150° C.): 3 ppm | Leaching Test-Leaching of active ingredients (single agent 5 gm/lit, curing 160° C.): 2 ppm | Leaching Test-Leaching of active ingredients (single agent 5 gm/lit, curing 180° C.): 1 ppm | Leaching Test-Leaching of active ingredients (single agent 10 gm/lit, curing 120° C.): 16 ppm | Leaching Test-Leaching of active ingredients (single agent 10 gm/lit, curing 140° C.): 15 ppm | Leaching Test-Leaching of active ingredients (single agent 10 gm/lit, curing 150° C.): 12 ppm | Leaching Test-Leaching of active ingredients (single agent 10 gm/lit, curing 160° C.): 9 ppm | Leaching Test-Leaching of active ingredients (single agent 10 gm/lit, curing 180° C.): 2 ppm | Leaching of active ingredient (in ppm) (solution dosage 0.10% o.w.f, exhaust temperature 40° C., process time 60 min): 0 ppm | Leaching of active ingredient (in ppm) (solution dosage 0.10% o.w.f, exhaust temperature 60° C., process time 60 min): 0 ppm | Leaching of active ingredient (in ppm) (solution dosage 0.10% o.w.f, exhaust temperature 65° C., process time 60 min): 0 ppm | Leaching of active ingredient (in ppm) (solution dosage 0.10% o.w.f, exhaust temperature 70° C., process time 60 min): 0 ppm | Leaching of active ingredient (in ppm) (solution dosage 0.10% o.w.f, exhaust temperature 75° C., process time 60 min): 0 ppm | Leaching of active ingredient (in ppm) (solution dosage 0.10% o.w.f, exhaust temperature 80° C., process time 60 min): 0 ppm | Leaching of active ingredient (in ppm) (solution dosage 0.10% o.w.f, exhaust temperature 85° C., process time 60 min): 2 ppm | Leaching of active ingredient (in ppm) (solution dosage 0.10% o.w.f, exhaust temperature 90° C., process time 60 min): 2 ppm | Leaching of active ingredient (in ppm) (solution dosage 0.10% o.w.f, exhaust temperature 95° C., process time 60 min): 2 ppm | Leaching of active ingredient (in ppm) (solution dosage 0.20% o.w.f, exhaust temperature 40° C., process time 60 min): 0 ppm | Leaching of active ingredient (in ppm) (solution dosage 0.20% o.w.f, exhaust temperature 60° C., process time 60 min): 0 ppm | Leaching of active ingredient (in ppm) (solution dosage 0.20% o.w.f, exhaust temperature 65° C., process time 60 min): 0 ppm | Leaching of active ingredient (in ppm) (solution dosage 0.20% o.w.f, exhaust temperature 70° C., process time 60 min): 0 ppm | Leaching of active ingredient (in ppm) (solution dosage 0.20% o.w.f, exhaust temperature 75° C., process time 60 min): 0 ppm | Leaching of active ingredient (in ppm) (solution dosage 0.20% o.w.f, exhaust temperature 80° C., process time 60 min): 0 ppm | Leaching of active ingredient (in ppm) (solution dosage 0.20% o.w.f, exhaust temperature 85° C., process time 60 min): 4 ppm | Leaching of active ingredient (in ppm) (solution dosage 0.20% o.w.f, exhaust temperature 90° C., process time 60 min): 4 ppm | Leaching of active ingredient (in ppm) (solution dosage 0.20% o.w.f, exhaust temperature 95° C., process time 60 min): 4 ppm | Leaching of active ingredient (in ppm) (solution dosage 0.50% o.w.f, exhaust temperature 40° C., process time 60 min): 0 ppm | Leaching of active ingredient (in ppm) (solution dosage 0.50% o.w.f, exhaust temperature 60° C., process time 60 min): 3 ppm | Leaching of active ingredient (in ppm) (solution dosage 0.50% o.w.f, exhaust temperature 65° C., process time 60 min): 2 ppm | Leaching of active ingredient (in ppm) (solution dosage 0.50% o.w.f, exhaust temperature 70° C., process time 60 min): 1 ppm | Leaching of active ingredient (in ppm) (solution dosage 0.50% o.w.f, exhaust temperature 75° C., process time 60 min): 1 ppm | Leaching of active ingredient (in ppm) (solution dosage 0.50% o.w.f, exhaust temperature 80° C., process time 60 min): 1 ppm | Leaching of active ingredient (in ppm) (solution dosage 0.50% o.w.f, exhaust temperature 85° C., process time 60 min): 5 ppm | Leaching of active ingredient (in ppm) (solution dosage 0.50% o.w.f, exhaust temperature 90° C., process time 60 min): 7 ppm | Leaching of active ingredient (in ppm) (solution dosage 0.50% o.w.f, exhaust temperature 95° C., process time 60 min): 8 ppm | Leaching of active ingredient (in ppm) (solution dosage 0.80% o.w.f, exhaust temperature 40° C., process time 60 min): 0 ppm | Leaching of active ingredient (in ppm) (solution dosage 0.80% o.w.f, exhaust temperature 60° C., process time 60 min): 4 ppm | Leaching of active ingredient (in ppm) (solution dosage 0.80% o.w.f, exhaust temperature 65° C., process time 60 min): 3 ppm | Leaching of active ingredient (in ppm) (solution dosage 0.80% o.w.f, exhaust temperature 70° C., process time 60 min): 2 ppm | Leaching of active ingredient (in ppm) (solution dosage 0.80% o.w.f, exhaust temperature 75° C., process time 60 min): 3 ppm | Leaching of active ingredient (in ppm) (solution dosage 0.80% o.w.f, exhaust temperature 80° C., process time 60 min): 1 ppm | Leaching of active ingredient (in ppm) (solution dosage 0.80% o.w.f, exhaust temperature 85° C., process time 60 min): 7 ppm | Leaching of active ingredient (in ppm) (solution dosage 0.80% o.w.f, exhaust temperature 90° C., process time 60 min): 7 ppm | Leaching of active ingredient (in ppm) (solution dosage 0.80% o.w.f, exhaust temperature 95° C., process time 60 min): 8 ppm | Leaching of active ingredient (in ppm) (solution dosage 1.00% o.w.f, exhaust temperature 40° C., process time 60 min): 0 ppm | Leaching of active ingredient (in ppm) (solution dosage 1.00% o.w.f, exhaust temperature 60° C., process time 60 min): 7 ppm | Leaching of active ingredient (in ppm) (solution dosage 1.00% o.w.f, exhaust temperature 65° C., process time 60 min): 7 ppm | Leaching of active ingredient (in ppm) (solution dosage 1.00% o.w.f, exhaust temperature 70° C., process time 60 min): 3 ppm | Leaching of active ingredient (in ppm) (solution dosage 1.00% o.w.f, exhaust temperature 75° C., process time 60 min): 4 ppm | Leaching of active ingredient (in ppm) (solution dosage 1.00% o.w.f, exhaust temperature 80° C., process time 60 min): 1 ppm | Leaching of active ingredient (in ppm) (solution dosage 1.00% o.w.f, exhaust temperature 85° C., process time 60 min): 8 ppm | Leaching of active ingredient (in ppm) (solution dosage 1.00% o.w.f, exhaust temperature 90° C., process time 60 min): 9 ppm | Leaching of active ingredient (in ppm) (solution dosage 1.00% o.w.f, exhaust temperature 95° C., process time 60 min): 10 ppm
